We go through 52 molecules from patent US20260200890A1, “ADAR1 INHIBITORS AND METHODS OF USING THE SAME” (AVAMMUNE THERAPEUTICS INC., priority 2022, published 2026).

Structures are written as SMILES.

The assay concerns the target T1, ADAR1 (Homo sapiens, UniProt P55265).
T1 construct: endogenous in cells; host or cells: p110 KO A549 dual cells
T1 sequence (P55265 1-1226): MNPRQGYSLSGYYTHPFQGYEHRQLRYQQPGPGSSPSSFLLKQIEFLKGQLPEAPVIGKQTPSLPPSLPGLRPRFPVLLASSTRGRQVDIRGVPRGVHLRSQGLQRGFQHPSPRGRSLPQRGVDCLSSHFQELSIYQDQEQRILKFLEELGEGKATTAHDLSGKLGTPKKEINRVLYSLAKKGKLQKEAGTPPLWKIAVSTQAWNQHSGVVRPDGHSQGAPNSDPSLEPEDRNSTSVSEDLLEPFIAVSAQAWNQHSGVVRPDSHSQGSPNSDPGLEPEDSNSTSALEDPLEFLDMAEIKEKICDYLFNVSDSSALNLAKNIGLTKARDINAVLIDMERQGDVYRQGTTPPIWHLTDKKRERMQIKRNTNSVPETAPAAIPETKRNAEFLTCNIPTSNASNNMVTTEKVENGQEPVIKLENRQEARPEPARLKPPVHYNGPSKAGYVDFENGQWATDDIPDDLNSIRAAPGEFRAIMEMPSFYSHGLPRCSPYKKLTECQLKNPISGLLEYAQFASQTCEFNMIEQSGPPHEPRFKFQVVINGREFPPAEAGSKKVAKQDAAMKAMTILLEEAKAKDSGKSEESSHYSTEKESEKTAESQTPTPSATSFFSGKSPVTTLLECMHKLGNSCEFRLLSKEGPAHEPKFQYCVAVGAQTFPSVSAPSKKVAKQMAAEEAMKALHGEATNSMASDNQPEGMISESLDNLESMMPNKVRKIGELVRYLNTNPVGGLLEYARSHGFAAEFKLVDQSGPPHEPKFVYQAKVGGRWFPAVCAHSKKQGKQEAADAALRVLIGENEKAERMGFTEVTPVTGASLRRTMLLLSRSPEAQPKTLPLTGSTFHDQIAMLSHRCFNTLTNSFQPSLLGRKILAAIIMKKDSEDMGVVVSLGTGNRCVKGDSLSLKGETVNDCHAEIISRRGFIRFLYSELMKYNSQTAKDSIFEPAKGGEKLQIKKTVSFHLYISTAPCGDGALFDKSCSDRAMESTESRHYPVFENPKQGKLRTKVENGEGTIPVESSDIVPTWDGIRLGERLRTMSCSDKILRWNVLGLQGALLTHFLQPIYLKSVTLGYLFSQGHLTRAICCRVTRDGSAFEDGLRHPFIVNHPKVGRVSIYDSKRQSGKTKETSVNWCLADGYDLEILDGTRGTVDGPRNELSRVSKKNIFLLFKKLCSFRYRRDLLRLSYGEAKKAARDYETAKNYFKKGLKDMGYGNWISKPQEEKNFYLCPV
The experiment in a line: ADAR1 Inhibition Assay (IFN fold-induction, Quanti-Luc luminescence, p110 KO A549 dual cells). The assay is classed as cell-based. Conditions: IFN fold-induction vs DMSO, 24 and 48 h. The method, boiled down:
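EC50 derived from IFN fold-induction, calculated as sample RLU over average DMSO RLU. Luminescence measured by Quanti-Luc on samples taken after 24 and 48 h of compound exposure (1% DMSO final, 37 °C, 5% CO2). Cells were p110 KO A549 dual, seeded at 20,000 per well in supplemented DMEM.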
For `CCOC(=O)c1cc(-c2ccccc2)sc1NC(=O)C1CCN(C(=O)c2cccc(NS(C)(=O)=O)c2)C1` (stereo not shown) [Compound 138, Ethyl 2-(1-(3-(methylsulfonamido)benzoyl)pyrrolidine-3-carboxamido)-5-phenylthiophene-3-carboxylate], the EC50 (usually the concentration at which the effect is half-maximal) is at most 25 µM.

Molecule `CCOC(=O)c1cc(-c2ccccc2)sc1NC(=O)COC(=O)c1cccc(NS(=O)(=O)N2CCOCC2)c1` [Compound 136] had an EC50 above 100 µM.

With `CCOC(=O)c1cc(-c2ccccc2)sc1NC(=O)CC1CCN(C(=O)c2cccc(NS(C)(=O)=O)c2)CC1` [Compound 164], the EC50 is above 100 µM.

Molecule `CCOC(=O)c1cc(-c2ccccc2)sc1NC(=O)COC(=O)c1cccc(S(=O)(=O)NC(=O)CC)c1` [Compound 193] came in with a 50% effective concentration (EC50) above 100 µM.

For `CS(=O)(=O)Nc1cccc(C(=O)OCCNC(=O)c2csc(-c3ccccc3)c2)c1` [Compound 271], the EC50 was above 100 µM.

`CCOC(=O)c1cc(-c2ccccc2)sc1NC(=O)[C@@H]1CCCN1C(=O)c1cccc(P(=O)(O)O)c1` [Compound 413] returned an EC50 above 100 µM.

In the case of `Cc1cc(C#N)c(NC(=O)COC(=O)c2cccc(S(N)(=O)=O)c2)s1` [Compound 83], the EC50 is above 100 µM.

Take `CCOC(=O)c1c(-c2ccccc2)csc1NC(=O)COC(=O)c1cccc(NS(C)(=O)=O)c1` [Compound 95]: the EC50 was above 100 µM.

Turning to `CCOC(=O)c1cc(-c2ccccc2)sc1NC(=O)C1CN(C(=O)c2cccc(NS(C)(=O)=O)c2)CCO1` (stereo not shown) [Compound 224], the EC50 is above 100 µM.

In the case of `CCOC(=O)c1cc(-c2ccccc2)sc1NC(=O)CC(=O)Nc1cccc(NS(C)(=O)=O)c1` [Compound 312], the EC50 lay within 50 to 100 µM.

Consider `CCOC(=O)c1cc(-c2ccccc2)sc1NC(=O)CNC(=O)c1cccc(CNS(C)(=O)=O)c1` [Compound 342], for which the EC50 was above 100 µM.

`CCOC(=O)c1c(NC(=O)COC(=O)c2cccc(NS(C)(=O)=O)c2)sc2c1CCC2` [Compound 86] showed an EC50 above 100 µM.

Molecule `NS(=O)(=O)c1cccc(C(=O)NCC(=O)Nc2nc3ccccc3s2)c1` [Compound 23] came in with a half-maximal effective concentration (EC50) above 100 µM.

`CCOC(=O)c1cc(-c2ccccc2)sc1NC(=O)COC(=O)c1cccc(OP(=O)(N[C@H](C)C(=O)OC(C)C)Oc2ccccc2)c1` (stereo partly shown) [Compound 411] showed an EC50 above 100 µM.

For the molecule `CCOC(=O)c1cc(-c2ccccc2)sc1NC(=O)CNCCS(N)(=O)=O` [Compound 14], the EC50 was above 100 µM.

The molecule `CCOC(=O)c1cc(-c2ccccc2)sc1NC(=O)COC(=O)c1cccc(C(C)=O)c1` [Compound 64] returned an EC50 of at most 25 µM.

On to `CCOC(=O)c1cc(-c2ccccc2)sc1NC(=O)/C=C/c1cccc(NS(C)(=O)=O)c1` [Compound 149], for which the EC50 was above 100 µM.

For `CCOC(=O)c1cc(-c2ccccc2)sc1NC(=O)CN(C)C(=O)c1cccc(P(=O)(OCC)OCC)c1` [Compound 392], the EC50 was in the range of 50 to 100 µM.

`CCOC(=O)c1cc(-c2ccccc2)sc1NC(=O)CNS(=O)(=O)c1ccc(C)cc1` [Compound 27] displayed an EC50 above 100 µM.

On to `CCOC(=O)c1cc(-c2ccccc2)sc1-c1coc(/C=N\c2cccc(NS(C)(=O)=O)c2)c1` [Compound 313], for which the EC50 was above 100 µM.

Molecule `CCOC(=O)c1cc(-c2ccccc2)sc1NC(=O)CO/N=C/c1cccc(NS(C)(=O)=O)c1` [Compound 283] showed an EC50 above 100 µM.

Take `CCOC(=O)c1cc(-c2ccccc2)sc1NC(=O)[C@H]1CCN(C(=O)c2cccc(NS(C)(=O)=O)c2)C1` [Compound 157]: the EC50 is above 100 µM.

`Cc1cccc(Cl)c1NC(=O)c1csc(NC(=O)c2cccc(S(N)(=O)=O)c2)n1` [Compound 35] came in with an EC50 above 100 µM.

Molecule `CCOC(=O)c1cc(-c2ccccc2)sc1NC(=O)CCOc1cccc(NS(C)(=O)=O)c1` [Compound 276] registered an EC50 above 100 µM.

`CCOC(=O)c1cc(-c2ccccc2)sc1NC(=O)COC(=O)c1cccc(NS(=O)(=O)N2CCCCC2)c1` [Compound 140] came in with an EC50 above 100 µM.

With `NS(=O)(=O)c1cccc(C(=O)NCC(=O)Nc2nnc(-c3ccccc3)s2)c1` [Compound 49], the EC50 is above 100 µM.

In turn, `CCOC(=O)c1cc(-c2ccccc2)sc1NC(=O)Cn1cc(-c2cccc(NS(C)(=O)=O)c2)nn1` [Compound 181] showed an EC50 above 100 µM.

On to `NS(=O)(=O)c1cccc(NC(=O)CNC(=O)c2csc(-c3ccccc3)c2)c1` [Compound 30], for which the EC50 was above 100 µM.

On to `CCOC(=O)c1cc(-c2ccccc2)[nH]c1NC(=O)COC(=O)c1cccc(NS(C)(=O)=O)c1` [Compound 352], for which the EC50 was above 100 µM.

Consider `CCOC(=O)c1cc(-c2ccccc2)sc1NC(=O)C1CCC(NC(=O)c2cccc(NS(C)(=O)=O)c2)CC1` (stereo not shown) [Compound 285], for which the EC50 is above 100 µM.

For `CCOC(=O)c1cc(-c2ccccc2)sc1NC(=O)CN1CCN(c2cccc(NS(C)(=O)=O)c2)CC1` [Compound 280], the EC50 was above 100 µM.

Regarding `CCOC(=O)c1cc(-c2ccccc2)sc1NC(=O)COC(=O)c1cccc(S(C)(=O)=O)c1` [Compound 65], the EC50 is above 100 µM.

As for `CCOC(=O)c1cc(P(=O)(OCC)OCC)sc1NC(=O)COC(=O)c1cccc(NS(C)(=O)=O)c1` [Compound 345], the EC50 is above 100 µM.

`COC(=O)c1cc(-c2ccccc2)sc1NC(=O)COC(=O)c1cccc(NS(C)(=O)=O)c1` [Compound 191] yielded an EC50 above 100 µM.

`CCOC(=O)c1c(NC(=O)COC(=O)c2cccc(S(N)(=O)=O)c2)sc2c1CCC2` [Compound 77]: the EC50 was above 100 µM.

Molecule `CCOC(=O)c1cc(-c2cc(F)cc(F)c2)sc1NC(=O)COC(=O)c1cccc(S(N)(=O)=O)c1` [Compound 52] gave an EC50 above 100 µM.

The molecule `CCOC(=O)c1cc(-c2ccccc2)sc1NC(=O)CN(C(=O)c1cccc(NS(C)(=O)=O)c1)C(C)C` [Compound 162] registered an EC50 above 100 µM.

`CCOC(=O)c1cc(-c2ccccc2)sc1NC(=O)COC(=O)Cc1cccc(NS(C)(=O)=O)c1` [Compound 126] gave a concentration giving a half-maximal response (EC50) above 100 µM.

The molecule `CCOC(=O)c1cc(-c2ccccc2)sc1NC(=O)COC(=O)c1ccc2cc(NS(C)(=O)=O)ccc2c1` [Compound 378] displayed a concentration for a half-maximal effect (EC50) above 100 µM.

For `CCOC(=O)c1cc(-c2ccccc2)sc1NC(=O)COC(=O)c1cc(S(N)(=O)=O)ccc1F` [Compound 37], the EC50 was above 100 µM.

Molecule `CCOC(=O)c1cc(-c2ccccc2)sc1NC(=O)C1CCN(C(=O)c2cccc(NS(=O)(=O)N3CCOCC3)c2)C1` (stereo not shown) [Compound 158] returned an EC50 above 100 µM.

Molecule `CCOC(=O)c1cc(-c2ccccc2)ncc1NC(=O)C1CCN(C(=O)c2cccc(NS(C)(=O)=O)c2)C1` (stereo not shown) [Compound 210] displayed an EC50 above 100 µM.

`CCOC(=O)c1cc(-c2ccc(S(C)(=O)=O)cc2)sc1NC(=O)COC(=O)c1cccc(NS(C)(=O)=O)c1` [Compound 103]: the EC50 was above 100 µM.

The molecule `COC(=O)c1sc(-c2ccccc2)cc1NC(=O)COC(=O)c1cccc(NS(C)(=O)=O)c1` [Compound 311] gave an EC50 of at most 25 µM.

For the molecule `CCOC(=O)c1cc(-c2ccccc2)sc1NC(=O)CNC(=O)Cc1cccc(S(N)(=O)=O)c1` [Compound 371], the EC50 is above 100 µM.

In turn, `CCOC(=O)c1cc(-c2ccccc2)sc1NC(=O)COC(=O)c1ccccc1NS(C)(=O)=O` [Compound 110] returned an EC50 above 100 µM.

In turn, `CCOC(=O)c1cc(-c2ccccc2)sc1NC(=O)COC(=O)c1cccc(Br)c1` [Compound 314] returned an EC50 of 50 to 100 µM.

`CCOC(=O)c1cc(-c2ccccc2)sc1NC(=O)COC(c1cccc(NS(C)(=O)=O)c1)C(F)(F)F` (stereo not shown) [Compound 250]: the EC50 was above 100 µM.

`CCOC(=O)c1cc(-c2ccccc2)sc1NC(=O)Cn1ncc2ccc(NS(C)(=O)=O)cc21` [Compound 242] gave an EC50 above 100 µM.

The molecule `CCOC(=O)c1cc(-c2ccccc2)sc1NC(=O)NS(=O)(=O)c1cccc(NS(C)(=O)=O)c1` [Compound 275] gave an EC50 above 100 µM.

In the case of `CCOC(=O)c1cc(-c2ccccc2)sc1NC(=O)OCc1nnc(-c2cccc(NS(C)(=O)=O)c2)o1` [Compound 290], the EC50 is above 100 µM.

`COC(=O)c1nc(NC(=O)COC(=O)c2cccc(S(N)(=O)=O)c2)sc1-c1ccccc1` [Compound 57] yielded an EC50 above 100 µM.
